Test results published in publication PMC8776995 (Frontiers in Chemistry, 2022).
“And” between values parts separate entries of the source, which are not always exact repeats. Equal values may be shown once. Read-outs that look alike come from different tables or passages of the source.

Assays:
[1] = system: EGFR phosphorylation (Tyr1068) in H460 cells; assay: Western blot, p-EGFR/EGFR in H460; settings: for p-EGFR/EGFR: band density ratio; for p-EGFR/EGFR relative to DMSO: ratio normalised to DMSO
Method: We also performed western blot analysis to evaluate the impact of e4 and e12 on EGFR signaling in PC-9 and H460 cells.
H460 cells were seeded in six-well plates with serum-free medium overnight, and then treated complete medium containing 0.1% DMSO, various concentrations (0.1, 1 and 10 μM) of either compound e4 or e12 for 2 h, respectively. […] Then the H460 cells were treated with complete medium containing EGF (10 ng/ml) for 5 min. Then the cells were harvested and washed with PBS, centrifuged, resuspended in 100–200 μl of RIPA lysis buffer containing Protease and Phosphatase Inhibitor Cocktail (1X), and then centrifuged for 5 min at 12,000 rpm at 4°C. The supernatant was used for protein analysis. […] Then the membrane was washed 5 min (X3) and incubated at 1:3,000 dilution of anti-rabbit secondary antibodies or 1:1,000 dilution of anti-mouse secondary antibodies for 1 h at RT. After washing with TBST 5 min (X3), protein bands were developed by chemiluminescence. The protein levels were quantified by the gray values of the bands in the resulting images by ImageJ, and the control group was used as the standard. […] The PC-9 cells were harvested and analyzed as above.

[2] = system: H460 cells; assay: CCK-8 antiproliferation assay, H460; settings: for Inhibitory efficacy: H460 cells
[3] = system: A549 cells; assay: CCK-8 antiproliferation assay, A549; settings: for Inhibitory efficacy: A549 cells
[4] = system: CCND1, CCNA2, CCNB1, CDK2, CDK6 RNA in PC-9 cells; assay: qPCR assay for cell cycle-related gene analysis; assay type: cell-based, human; settings: for CCNB relative mRNA expression (2^-ddCt vs NC, normalised to beta-Actin) / CCND1 relative mRNA expression (2^-ddCt vs NC, normalised to beta-Actin) / CDK6 relative mRNA expression (2^-ddCt vs NC, normalised to beta-Actin): qPCR SYBR_GREEN, NC = 1; for RQ: endogenous control b-Actin, reference sample NC; for 2^ΔΔCт CCNA / 2^ΔΔCт CCNB / 2^ΔΔCт CCND1 / 2^ΔΔCт CDK2: Repeat 1-3, relative to NC = 1
From the text: To better understand the mechanisms underlying cell cycle arrest induced by e4 and e12 in NSCLC cells, we assessed the expression levels of a few genes involved in cell cycle regulation, including cyclin D1 (CCND1), cyclin A2 (CCNA2), cyclin B1 (CCNB1), cyclin-dependent kinase 2 (CDK2), and cyclin-dependent kinase 6 (CDK6) in PC-9 by qPCR. […] CCNA2 is known to bind and activate CDK2 and thus promotes the transition through G1/S and G2/M. CCNB1 and CCND1 are essential to mitosis and G1/S transition respectively. While G2/M arrest weas not detected, the changes in these gene expression profiles interpret the G1/S arrests in PC-9 cells treated with e4 and e12. PC-9 cells exposed to the compounds for various periods should be examined further.
Total RNA of cells was extracted and cDNA was synthesized. The primers for the target products were designed as in Table 3.

[5] = 8uM, given as fraction, Repeat 1-3
[6] = 16uM, given as fraction, Repeat 1-3

COCCOc1cc2ncnc(Nc3cccc(-c4cn(Cc5cc(Br)cc(Br)c5)nn4)c3)c2cc1OCCOC [e4, [6,7-Bis-(2-methoxy-ethoxy)-quinazolin-4-yl]-{3-[1-(3,5-dibromo-benzyl)-1H-[1,2,3]triazol-4-yl]-phenyl}-amine]
p-EGFR/EGFR ([1]; H460, 0.1 uM): 0.8093
p-EGFR/EGFR relative to DMSO ([1]; H460, 0.1 uM): 0.9725
p-EGFR/EGFR ([1]; H460, 1 uM): 0.8837
p-EGFR/EGFR relative to DMSO ([1]; H460, 1 uM): 1.062
p-EGFR/EGFR ([1]; H460, 10 uM): 0.3865
p-EGFR/EGFR relative to DMSO ([1]; H460, 10 uM): 0.4645
phosphorylation of EGFR (western blot) ([1]; H460, especially at 10 μM): suppressed
Inhibitory efficacy ([2]; 1uM, given as fraction, Repeat 1-3): 0.09927 and 0.1204
Inhibitory efficacy ([2]; 2uM, given as fraction, Repeat 1-3): 0.08541 and 0.1118
Inhibitory efficacy [2, 5]: 0.8422 and 0.8158
Inhibitory efficacy [2, 6]: 0.9425 and 0.965
IC50 ([2]; Homo sapiens, NCI-H460, 48 h, read-out: IC50 (μM) H460, CCK-8, 48 h, average ± SD of three independent experiments): < 10 µM
inhibition at 1 µM ([2]; Homo sapiens, NCI-H460, read-out: Inhibitory efficacy, H460 cells, 1uM, given as fraction, Repeat 1-3): 19.4%
inhibition at 2 µM ([2]; Homo sapiens, NCI-H460, read-out: Inhibitory efficacy, H460 cells, 2uM, given as fraction, Repeat 1-3): 16.7%
inhibition at 8 µM ([2]; Homo sapiens, NCI-H460, read-out: Inhibitory efficacy, H460 cells, 8uM, given as fraction, Repeat 1-3): 79.5%
inhibition at 16 µM ([2]; Homo sapiens, NCI-H460, read-out: Inhibitory efficacy, H460 cells, 16uM, given as fraction, Repeat 1-3): 95%
IC50 ([2]; read-out: IC50 (μM) H460, CCK-8, 48 h, average ± SD of three independent experiments): 5.18 ± 0.78 µM
Inhibitory efficacy ([3]; 4uM, given as fraction, Repeat 1-3): 0.2144 and 0.2227
Inhibitory efficacy [3, 5]: 0.7075 and 0.6166
Inhibitory efficacy [3, 6]: 0.9444 and 0.9355
IC50 ([3]; Homo sapiens, A549, 48 h, read-out: IC50 (μM) A549, CCK-8, 48 h, average ± SD of three independent experiments): < 10 µM
inhibition at 4 µM ([3]; Homo sapiens, A549, read-out: Inhibitory efficacy, A549 cells, 4uM, given as fraction, Repeat 1-3): 35.6%
inhibition at 8 µM ([3]; Homo sapiens, A549, read-out: Inhibitory efficacy, A549 cells, 8uM, given as fraction, Repeat 1-3): 75.6%
inhibition at 16 µM ([3]; Homo sapiens, A549, read-out: Inhibitory efficacy, A549 cells, 16uM, given as fraction, Repeat 1-3): 94.8%
IC50 ([3]; read-out: IC50 (μM) A549, CCK-8, 48 h, average ± SD of three independent experiments): 5.8 ± 0.78 µM
CCNB relative mRNA expression (2^-ddCt vs NC, normalised to beta-Actin) ([4]; 4uM): 0.8081
CCNB relative mRNA expression (2^-ddCt vs NC, normalised to beta-Actin) ([4]; 8uM): 0.7848
CCND1 relative mRNA expression (2^-ddCt vs NC, normalised to beta-Actin) ([4]; 8uM): 0.7172
CDK6 relative mRNA expression (2^-ddCt vs NC, normalised to beta-Actin) ([4]; 8uM): 0.824
CCNB relative mRNA expression (2^-ddCt vs NC, normalised to beta-Actin) ([4]; 12uM): 0.736
CCND1 relative mRNA expression (2^-ddCt vs NC, normalised to beta-Actin) ([4]; 12uM): 0.6074
CDK6 relative mRNA expression (2^-ddCt vs NC, normalised to beta-Actin) ([4]; 12uM): 1.051
RQ ([4]; CCNA mRNA, 4uM): 0.764
RQ ([4]; CCNA mRNA, 8uM): 0.7042
RQ ([4]; CCNA mRNA, 12uM): 0.7817
2^ΔΔCт CCNA ([4]; 4uM): 0.7613 and 0.8165 and 0.764
2^ΔΔCт CCNA ([4]; 8uM): 0.7109 and 0.778 and 0.7042
2^ΔΔCт CCNA ([4]; 12uM): 0.5857 and 0.5446 and 0.7817
RQ ([4]; CCNB mRNA, 4uM): 0.9138
RQ ([4]; CCNB mRNA, 8uM): 0.7783
RQ ([4]; CCNB mRNA, 12uM): 1.003
2^ΔΔCт CCNB ([4]; 4uM): 0.8081 and 0.8617 and 0.9138
2^ΔΔCт CCNB ([4]; 8uM): 0.7848 and 0.9105 and 0.7783
2^ΔΔCт CCNB ([4]; 12uM): 0.736 and 0.7897 and 1.003
2^ΔΔCт CCND1 ([4]; CCND1, 4uM): 0.8337 and 1.076 and 0.8297
2^ΔΔCт CCND1 ([4]; CCND1, 8uM): 0.7172 and 1.068 and 0.8923
2^ΔΔCт CCND1 ([4]; CCND1, 12uM): 0.6074 and 0.7441 and 0.7112
2^ΔΔCт ([4]; CCND1, 12uM, normalized to WT (NC), run 20201020-2): 0.7112
RQ ([4]; CCND1 mRNA, 4uM): 0.8297
RQ ([4]; CCND1 mRNA, 8uM): 0.8923
RQ ([4]; CCND1 mRNA, 12uM): 0.7112
2^ΔΔCт CDK2 ([4]; CDK2, 4uM): 1.17 and 1.2056 and 1.028
2^ΔΔCт CDK2 ([4]; CDK2, 8uM): 1.1688 and 1.551 and 1.159
2^ΔΔCт CDK2 ([4]; CDK2, 12uM): 0.9257 and 1.095 and 1.173
RQ ([4]; CDK2 mRNA, 4uM): 1.028
RQ ([4]; CDK2 mRNA, 8uM): 1.159
